Reference: patent publication US20260241012A1, “1,8-NAPHTHYRIDIN-2-ONE HETEROBIFUNCTIONAL BCL6 DEGRADERS” (Treeline Biosciences, Inc., priority 2022, published 2026)

Target: T1, N-terminal HiBiT tagged BCL6 (Homo sapiens, UniProt P41182)
T1 construct: expressed in transfected cells; host or cells: HT1080 (ATCC CCL-121), stably transduced with lentivirus pLV-UBC-N-HiBiT-BCL6-PGK-puro
Assay: HiBiT based degradation assay
Type: cell-based
Details: HT1080 cells expressing N-terminal HiBiT tagged BCL6, 5 hours of incubation; for Ymin (5 hr): BCL6 degradation normalized with DMSO control; for DC50: four-parameter logistic model, read-out: EC50 (5 hr)
Procedure, shortened: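 Degradation measured by luminescence from the Nano-Glo HiBiT lytic reagent (15 min, room temperature), normalized to DMSO controls and fitted to a four-parameter curve.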

SMILES | Ymin (5 hr) | DC50 [µM]
CNC(=O)COc1cc2cc(Nc3nc(N4CCN([C@@H](C)C5CCN(c6cccc7c(C8CCC(=O)NC8=O)nn(C)c67)CC5)CC4)ncc3Cl)cnc2n(C(C)C)c1=O (single isomer, unassigned) [Compound 195a] | ++++ (Ymin < 30%) | 0.01 to 0.1
CNC(=O)COc1cc2cc(Nc3nc(N4CCN(CCC5CCN(c6cccc7c(C8CCC(=O)NC8=O)nn(C)c67)CC5)CC4)ncc3Cl)cnc2n(C)c1=O (stereo not drawn) [Compound 115, 2-((6-((5-chloro-2-(4-(2-(1-(3-(2,6-dioxopiperidin-3-yl)-1-methyl-1H-indazol-7-yl)piperidin-4-yl)ethyl)piperazin-1-yl)pyrimidin-4-yl)amino)-1-methyl-2-oxo-1,2-dihydro-1,8-naphthyridin-3-yl)oxy)-N-methylacetamide] | +++ (30% ≤ Ymin < 50%) | < 0.01
CNC(=O)COc1cc2cc(Nc3nc(N4CC5(CN(CC6CCN(c7ccc8c(C9CCC(=O)NC9=O)nn(C)c8c7)CC6)C5)C4)ncc3Cl)cnc2n(C)c1=O (stereo not drawn) [Compound 118, 2-((6-((5-chloro-2-(6-((1-(3-(2,6-dioxopiperidin-3-yl)-1-methyl-1H-indazol-6-yl)piperidin-4-yl)methyl)-2,6-diazaspiro[3.3]heptan-2-yl)pyrimidin-4-yl)amino)-1-methyl-2-oxo-1,2-dihydro-1,8-naphthyridin-3-yl)oxy)-N-methylacetamide] | ++++ (Ymin < 30%) | < 0.01
CNC(=O)COc1cc2cc(Nc3nc(N4CCN(CC5CCN(c6ccc7c(C8CCC(=O)NC8=O)nn(C)c7c6)CC5)CC4)ncc3F)cnc2n(C)c1=O (stereo not drawn) [Compound 134, 2-((6-((2-(4-((1-(3-(2,6-dioxopiperidin-3-yl)-1-methyl-1H-indazol-6-yl)piperidin-4-yl)methyl)piperazin-1-yl)-5-fluoropyrimidin-4-yl)amino)-1-methyl-2-oxo-1,2-dihydro-1,8-naphthyridin-3-yl)oxy)-N-methylacetamide] | +++ (30% ≤ Ymin < 50%) | < 0.01
CNC(=O)COc1cc2cc(Nc3nc(N4CC[C@@H](CN5CCN(c6ccc7c(C8CCC(=O)NC8=O)nn(C)c7c6)CC5)C4)ncc3Cl)cnc2n(C(C)C)c1=O (stereo partly drawn) [Compound 218a, 2-[[6-[[5-chloro-2-[(3S)-3-[[4-[3-(2,6-dioxo-3-piperidyl)-1-methyl-indazol-6-yl]piperazin-1-yl]methyl]pyrrolidin-1-yl]pyrimidin-4-yl]amino]-1-isopropyl-2-oxo-1,8-naphthyridin-3-yl]oxy]-N-methyl-acetamide] | +++ (30% ≤ Ymin < 50%) | < 0.01
CNC(=O)COc1cc2cc(Nc3nc(N4CC5(CC[C@H](Nc6ccc7c(C8CCC(=O)NC8=O)nn(C)c7c6)[C@@H](C)C5)C4)ncc3Cl)cnc2n(C)c1=O (single isomer, unassigned) [Compound 156a] | ++++ (Ymin < 30%) | < 0.01
CNC(=O)COc1cc2cc(Nc3nc(N4CCC(CN5C[C@H]6C[C@@H]5CN6c5cccc6c(C7CCC(=O)NC7=O)nn(C)c56)CC4)ncc3Cl)cnc2n(C(C)C)c1=O (stereo partly drawn) [Compound 175a, 2-[[6-[[5-chloro-2-[4-[[(1R,4R)-5-[3-(2,6-dioxo-3-piperidyl)-1-methyl-indazol-7-yl]-2,5-diazabicyclo[2.2.1]heptan-2-yl]methyl]-1-piperidyl]pyrimidin-4-yl]amino]-1-isopropyl-2-oxo-1,8-naphthyridin-3-yl]oxy]-N-methyl-acetamide] | +++ (30% ≤ Ymin < 50%) | < 0.01
CNC(=O)COc1cc2cc(Nc3nc(N4C5COCC4CN(CC4CCN(c6cccc7c(C8CCC(=O)NC8=O)nn(C)c67)CC4)C5)ncc3Cl)cnc2n(C(C)C)c1=O (stereo not drawn) [Compound 162, 2-((6-((5-chloro-2-(7-((1-(3-(2,6-dioxopiperidin-3-yl)-1-methyl-1H-indazol-7-yl)piperidin-4-yl)methyl)-3-oxa-7,9-diazabicyclo[3.3.1]nonan-9-yl)pyrimidin-4-yl)amino)-1-isopropyl-2-oxo-1,2-dihydro-1,8-naphthyridin-3-yl)oxy)-N-methylacetamide] | ++++ (Ymin < 30%) | < 0.01
CNC(=O)COc1cc2cc(Nc3nc(N4CCN(c5cccc6c(C7CCC(=O)NC7=O)nn(C)c56)CC4)ncc3Cl)cnc2n(C(C)C)c1=O (stereo not drawn) [Compound 166, 2-[[6-[[5-chloro-2-[4-[3-(2,6-dioxo-3-piperidyl)-1-methyl-indazol-7-yl]piperazin-1-yl]pyrimidin-4-yl]amino]-1-isopropyl-2-oxo-1,8-naphthyridin-3-yl]oxy]-N-methyl-acetamide] | +++ (30% ≤ Ymin < 50%) | < 0.01
CNC(=O)COc1cc2cc(Nc3nc(N4CC5(CC[C@@H](Oc6ccc7c(C8CCC(=O)NC8=O)nn(C)c7c6)[C@H](C)C5)C4)ncc3Cl)cnc2n(C(C)C)c1=O (relative stereo) [Compound 185d, 2-[[6-[[5-chloro-2-[(6R,7R)-7-[3-(2,6-dioxo-3-piperidyl)-1-methyl-indazol-6-yl]oxy-6-methyl-2-azaspiro[3.5]nonan-2-yl]pyrimidin-4-yl]amino]-1-isopropyl-2-oxo-1,8-naphthyridin-3-yl]oxy]-N-methyl-acetamide] | ++++ (Ymin < 30%) | < 0.01
CNC(=O)COc1cc2cc(Nc3nc(N4CCN(CC5CCN(c6cccc7c(C8CCC(=O)NC8=O)nn(C)c67)CC5)CC4)ncc3Cl)cnc2n(CCO)c1=O (stereo not drawn) [Compound 186, 2-((6-((5-chloro-2-(4-((1-(3-(2,6-dioxopiperidin-3-yl)-1-methyl-1H-indazol-7-yl)piperidin-4-yl)methyl)piperazin-1-yl)pyrimidin-4-yl)amino)-1-(2-hydroxyethyl)-2-oxo-1,2-dihydro-1,8-naphthyridin-3-yl)oxy)-N-methylacetamide] | ++++ (Ymin < 30%) | 0.01 to 0.1
CNC(=O)COc1cc2cc(Nc3nc(NC4CCC5(CC4)CN(c4ccc6c(C7CCC(=O)NC7=O)nn(C)c6c4)C5)ncc3Cl)cnc2n(C(C)C)c1=O (stereo not drawn) [Compound 206, 2-[[6-[[5-chloro-2-[[2-[3-(2,6-dioxo-3-piperidyl)-1-methyl-indazol-6-yl]-2-azaspiro[3.5]nonan-7-yl]amino]pyrimidin-4-yl]amino]-1-isopropyl-2-oxo-1,8-naphthyridin-3-yl]oxy]-N-methyl-acetamide] | ++++ (Ymin < 30%) | < 0.01
CNC(=O)COc1cc2cc(Nc3nc(N4CCC(CN5CCN(c6cccc7c(C8CCC(=O)NC8=O)nn(C)c67)CC5)CC4)ncc3Cl)cnc2n(C)c1=O (stereo not drawn) [Compound 132, 2-((6-((5-chloro-2-(4-((4-(3-(2,6-dioxopiperidin-3-yl)-1-methyl-1H-indazol-7-yl)piperazin-1-yl)methyl)piperidin-1-yl)pyrimidin-4-yl)amino)-1-methyl-2-oxo-1,2-dihydro-1,8-naphthyridin-3-yl)oxy)-N-methylacetamide] | ++++ (Ymin < 30%) | < 0.01
CNC(=O)COc1cc2cc(Nc3nc(N4CCN(CC5CCN(c6cccc7c(C8CCC(=O)NC8=O)nn(C)c67)CC5)CC4)ncc3Cl)cnc2n(C)c1=O (stereo not drawn) [Compound 101, 2-((6-((5-chloro-2-(4-((1-(3-(2,6-dioxopiperidin-3-yl)-1-methyl-1H-indazol-7-yl)piperidin-4-yl)methyl)piperazin-1-yl)pyrimidin-4-yl)amino)-1-methyl-2-oxo-1,2-dihydro-1,8-naphthyridin-3-yl)oxy)-N-methylacetamide] | ++++ (Ymin < 30%) | < 0.01
CNC(=O)COc1cc2cc(Nc3nc(N4CCN(CC5CCN(c6cccc7c(C8CCC(=O)NC8=O)nn(C)c67)CC5)CC4)ncc3Cl)cnc2n(C(C)C)c1=O (stereo not drawn) [Compound 103, 2-((6-((5-chloro-2-(4-((1-(3-(2,6-dioxopiperidin-3-yl)-1-methyl-1H-indazol-7-yl)piperidin-4-yl)methyl)piperazin-1-yl)pyrimidin-4-yl)amino)-1-isopropyl-2-oxo-1,2-dihydro-1,8-naphthyridin-3-yl)oxy)-N-methylacetamide] | ++++ (Ymin < 30%) | 0.01 to 0.1
CNC(=O)COc1cc2cc(Nc3nc(N4CCN(CC5CCN(c6cccc7c(C8CCC(=O)NC8=O)nn(C)c67)CC5)CC4)ncc3Cl)cnc2n(CCOC)c1=O (stereo not drawn) [Compound 154, 2-((6-((5-chloro-2-(4-((1-(3-(2,6-dioxopiperidin-3-yl)-1-methyl-1H-indazol-7-yl)piperidin-4-yl)methyl)piperazin-1-yl)pyrimidin-4-yl)amino)-1-(2-methoxyethyl)-2-oxo-1,2-dihydro-1,8-naphthyridin-3-yl)oxy)-N-methylacetamide] | ++++ (Ymin < 30%) | < 0.01
CNC(=O)COc1cc2cc(Nc3nc(N4CC5(CC[C@H](Nc6ccc7c(C8CCC(=O)NC8=O)nn(C)c7c6)[C@H](C)C5)C4)ncc3Cl)cnc2n(C(C)C)c1=O (relative stereo) [Compound 180b, rel-2-((6-((5-chloro-2-((6R,7S)-7-((3-(2,6-dioxopiperidin-3-yl)-1-methyl-1H-indazol-6-yl)amino)-6-methyl-2-azaspiro[3.5]nonan-2-yl)pyrimidin-4-yl)amino)-1-isopropyl-2-oxo-1,2-dihydro-1,8-naphthyridin-3-yl)oxy)-N-methylacetamide] | +++ (30% ≤ Ymin < 50%) | < 0.01
CNC(=O)COc1cc2cc(Nc3nc(N4CC5(CCC(Nc6ccc(F)c7c(C8CCC(=O)NC8=O)nn(C)c67)CC5)C4)ncc3Cl)cnc2n(C(C)C)c1=O (stereo not drawn) [Compound 198, 2-[[6-[[5-chloro-2-[7-[[3-(2,6-dioxo-3-piperidyl)-4-fluoro-1-methyl-indazol-7-yl]amino]-2-azaspiro[3.5]nonan-2-yl]pyrimidin-4-yl]amino]-1-isopropyl-2-oxo-1,8-naphthyridin-3-yl]oxy]-N-methyl-acetamide] | ++ (50% ≤ Ymin < 70%) | 0.01 to 0.1
